# Assays:
# rabbit aortic strips = assay: Ca+2 antagonism: relaxation of potassium-contracted rabbit aortic strips; assay type: cell-based; conditions: Oryctolagus cuniculus; 10^-5 M bath concentration; strips contracted with 100 millimoles potassium ion; read-out: percent relaxation (P.R.)
# Description: After a stable active tension has developed in the strip, as measured by Statham UC-2 force transducers and recorded on an eight channel Beckman Dynograph Polygraphic Recorder, an amount of the antagonist was added to the organ bath to make a 10^-5 molar concentration of antagonist. The […] effect, expressed as percent relaxation, was taken from the mean of at least two experiments. […] A Ca^+2 antagonist producing a 20 percent relaxation of aortic tissue in this test procedure at a 10^-5 molar bath concentration of the antagonist, generally produces a significant reduction in blood pressure when a sufficient amount is given to the spontaneously hypertensive rat. The following examples illustrate the preparation of a representative number of compounds of this invention. After each example, the Ca^+2 antagonist activity of the compound is presented in terms of percent relaxation (P.R.) at the stated concentration. Similarly, the antihypertensive activity is reported in terms of millimeters mercury (mmHg) blood pressure (B.P.) reduction at the stated time post 50 mg/kg oral dosing.
# [1] = system: spontaneously hypertensive rats; assay: Systolic blood pressure lowering in spontaneously hypertensive rats; assay type: in vivo, rat; conditions: 1.5 hours post dose 25 mg/kg
structure (smiles),measurement,setting,value
"COC(=O)C1=C(C)NC2=C(C(=O)CNC2)C1c1cccc([N+](=O)[O-])c1 (centres unmarked) [Example 13, 1,4,5,6,7,8-Hexahydro-2-methyl-4-(3-nitrophenyl)-5-oxo-1,7-naphthyridine-3-carboxylic acid methyl ester]",inhibition at 10 µM,rabbit aortic strips,86.5%
same,blood pressure (B.P.) reduction,[1],-58 mmHg
